Assay: Acid dissociation constant (pKa) in aqueous sulfonic acid solution
Type: physicochemical
Conditions: aqueous sulfonic acid solution titrated at 25° C. with aqueous sodium hydroxide; from pH at 50% neutralization
Procedure: Examples of the method for measuring pKa include a method in which an aqueous aliphatic sulfonic acid solution is titrated with a titrant such as sodium hydroxide at 25° C., and pKa is calculated from the pH value at the time point when 50% neutralization was achieved.
(7) Acid Dissociation Constant (pKa) in Aqueous Sulfonic Acid Solution
The aqueous sulfonic acid solution used in each of Examples and Comparative Examples was subjected to titration at 25° C. using an aqueous sodium hydroxide solution, and the acid dissociation constant was calculated based on the pH value at the time point when 50% neutralization was achieved.

| SMILES | pKa |
| --- | --- |
| CCS(=O)(=O)O [ethanesulfonic acid] | -1.3 |
| CCCCCCCCCCCCS(=O)(=O)O [n-dodecylsulfonic acid] | 0.3 |

Source: patent US9850343B2, “Method for producing liquid crystalline polyester, and liquid crystalline polyester” (TORAY Industries, Inc., priority 2013, dated 2017)
